From patent US20160082087A1, “WHITENING PROMOTING AGENT OR ATOPIC DERMATITIS AMELIORATING AGENT” (NITTA GELATIN INC., priority 2013, published 2016)
Marks after values point to notes of the source that are not given here.

How the values were obtained:
Format in all cases: cell-based, human
endoserine-1 (ET-1) = assay: ET-1 expression suppression test (real time PCR); details: 0.5 mM, 24 hours, NHEK (NB), control 1.00, GAPDH corrected
Protocol: (§1) A normal human epidermal keratinocyte NHEK (NB) (available from KURABO INDUSTRIES LTD.) was used. The cells were precultured in HuMedia-KG2 (available from KURABO INDUSTRIES LTD.), and 1.5×10^4 cells/mL×5 mL (7.5×10^4 cells/dish) were cultured in a 60 mm laboratory dish for two days. After confirming that the cells were subconfluent, the medium was replaced by 5 mL of HuMedia-KB2 (available from KURABO INDUSTRIES LTD.). Samples were added in respective concentrations, and allowed to react for 24 hours (ET-1, K10), 48 hours (TGM1, ivl, HAS2), and 72 hours (FLG). Total RNA was extracted from the cells, reverse transcribed, and subjected to real time PCR. In the real time PCR, as target genes, endoserine-1 (ET-1; Hs00174961_m1), keratin 10 (K10; Hs01043114_g1), transglutaminase 1 (TGM1; Hs01070310_m1), involucrin (ivl; Hs00846307_s1), filaggrin (FLG; Hs00856927_g1) and hyaluronic acid synthase 2 (HAS2; Hs00193435_m1) were measured. GAPDH was used as a correction gene. Calculation was conducted by using a calibration curve method, and FAM pigment of TaqMan Gene Expression was used in primers and probes.
(§2) For each peptide or the like of Examples 1 to 13 and Comparative Examples 1 to 27, RNA expression amounts of endoserine-1 (ET-1), keratin 10 (K10), transglutaminase 1 (TGM1), involucrin (ivl), filaggrin (FLG) and hyaluronic acid synthase 2 (HAS2) were measured. Values in the tables are each average value±standard deviation, and *, ** and *** denote that they are significant with P<0.05, P<0.01, and P<0.001, respectively with respect to the control in Paired-t-test.

keratin 10 (K10) = assay: K10 expression promotion test (real time PCR); details: 0.5 mM, 24 hours, NHEK (NB), control 1.00, GAPDH corrected
Protocol: as §1, §2

[1] = test system: transglutaminase 1 (TGM1); assay: TGM1 expression promotion test (real time PCR); details: 0.5 mM, 48 hours, NHEK (NB), control 1.00, GAPDH corrected
Protocol: as §1, §2

involucrin (ivl) = assay: ivl expression promotion test (real time PCR); details: 0.5 mM, 48 hours, NHEK (NB), control 1.00, GAPDH corrected
Protocol: as §1, §2

filaggrin (FLG) = assay: FLG expression promotion test (real time PCR); details: 0.5 mM, 72 hours, NHEK (NB), control 1.00, GAPDH corrected
Protocol: as §1, §2

[2] = test system: hyaluronic acid synthase 2 (HAS2); assay: HAS2 expression promotion test (real time PCR); details: 0.5 mM, 48 hours, NHEK (NB), control 1.00, GAPDH corrected
Protocol: as §1, §2

Transglutaminase 1 RNA expression amount [1]: 7.21 ± 0.03**
Substance: (Pro-Hyp-Gly)2 [Example 2]
Endoserine-I RNA expression amount (endoserine-1 (ET-1)): 0.43 ± 0.03*** | Keratin 10 RNA expression amount (keratin 10 (K10)): 5.69 ± 0.28*** | Involucrin RNA expression amount (involucrin (ivl)): 4.35 ± 0.04*** | Filaggrin RNA expression amount (filaggrin (FLG)): 9.58 ± 1.02*** | Hyaluronic acid synthase 2 RNA expression amount [2]: 3.11 ± 0.89**
